Measurements: patent publication US20230241101A1 (priority 2020, published 2023)
Read-outs that look alike come from different tables or passages of the source.

Tests used:
SARS-CoV-2 [1] = experiment: GA treatment of COVID-19 golden hamster via intranasal administration; type: in vivo, golden hamster rats; conditions: nasal spray 25 mg/kg.bw daily, day 4
SARS-CoV-2 [2] = experiment: SARS-CoV-2 replication in Vero cells (qRT-PCR); type: cell-based; conditions: read-out: EC50, inhibition of 50% SARS-CoV-2 replication in Vero cells
[3] = test system: macrophage RAW264.7 cells; experiment: Cell viability CCK8, RAW264.7 cells; type: cell-based; conditions: 48 hrs
Experimental: (§1) To test whether GA and AF are toxic to normal cells, Vero E6, RAW264.7, and 16HBE cell lines were tested. Various doses of AURANOFIN or GA gold cluster were added into cell culture media respectively. After 48 hours of incubation, cell viability was checked by CCK8 (Beyotime, China) following the manufacturer’s instruction, all studies were carried out in triplicate. All cell lines were obtained from ATCC with authentication service.

Vero E6 cell = experiment: Cell viability CCK8, Vero E6 cells; type: cell-based; conditions: 48 hrs
Experimental: as §1

[4] = test system: IL-6, IL-1β, TNF-α expression and NFκB pathway in 16HBE cells; experiment: Western blot of cytokine expression and NFκB pathway, 16HBE cells; type: cell-based, human
Experimental: (§2) RAW 264.7 or 16HBE cells were seeded into 6 well plates at a density of 2 × 10^6cells/well. […] The collected cell lysates were centrifuged at 13000 rpm for 10 min, and the supernatants were stored for the subsequent Western Blot analysis. The protein concentrations of the supernatants were determined using a microplate spectrophotometer (SPECTRAMAX M4 of Molecular Devices, USA) at a wavelength of 595 nm. An equal quantity of proteins (50 µg) was separated by running on 10% SDS-PAGE and the separated proteins were transferred to a polyvinylidene fluoride (PVDF) membrane (0.45 µm, Millipore, USA). […]

[5] = test system: human bronchial epithelial cells (16HBE); experiment: Cell viability CCK8, 16HBE cells; type: cell-based; conditions: 16HBE epithelial cell, 48 hrs
Experimental: as §1

SARS-CoV-2 [6] = conditions: Rothan et al, Virology 2020; read-out: EC50, SARS-CoV-2 replication in infected Huh cells; cited from earlier work
[7] = test system: inflammatory cytokine levels; conditions: oral AF 6-9 mg/kg.bw; intraperitoneal GA 5 mg/kg.bw; cited from earlier work
[8] = test system: IL-6, IL-1β, TNF-α expression and NFκB pathway in RAW 264.7 cells; experiment: Western blot of cytokine expression and NFκB pathway, RAW 264.7 cells; type: cell-based; conditions: AF 1.2 µM, GA 40 µM
Experimental: as §2

SD Rat = conditions: cited from earlier work
BALB/c mice = conditions: cited from earlier work
SARS-CoV-2 M^pro = SARS-CoV-2 M^pro (Severe acute respiratory syndrome coronavirus 2, UniProt P0DTD1); experiment: M^pro protease activity FRET assay; type: biochemical; conditions: no value printed (data not shown or figure only)

Question: Which “average pathological score of lung (INHAND)” value (SARS-CoV-2 [1]) does the source give for `CCC(CC)COC(=O)[C@H](C)N[P@](=O)(OC[C@H]1O[C@@](C#N)(c2ccc3c(N)ncnn23)[C@H](O)[C@@H]1O)Oc1ccccc1` here?
Answer: Its value is “approx. 2.7”.

Question: What about the EC50 (SARS-CoV-2 [2]; Severe acute respiratory syndrome coronavirus 2, Vero, 48 h) of the same compound?
Answer: Its EC50 is about 650 nM.

Question: For `CC(=O)OC[C@H]1O[C@@H]([S-])[C@H](OC(C)=O)[C@@H](OC(C)=O)[C@@H]1OC(C)=O.CCP(CC)CC.[Au+]` [AF, AURANOFIN], which CC50 [3] is on record?
Answer: The CC50 was about 2630 nM.

Question: What about the CC50 (Vero E6 cell) of the same compound?
Answer: Its CC50 is about 2270 nM.

Question: And the “phosphorylation level of IKK, IκB, p65 and IL-6, IL-1β, TNF-α expression” value ([4]; bronchial epithelial cells, AF 0.15 µM, GA 20 µM)?
Answer: The value was “significantly inhibited”.

Question: And the “IL-6, IL-1β, and TNF-α expression levels” value ([4]; human bronchial epithelial cells, TNFα 50 ng/mL, 24 hrs, AF 1.2 µM, GA 40 µM)?
Answer: Its value is “significantly suppressed”.

Question: And the CC50 [5]?
Answer: Its CC50 is about 630 nM.

Question: And the EC50 (SARS-CoV-2 [6])?
Answer: The EC50 was about 1400 nM.

Question: What about the inflammatory cytokine levels [7] of the same compound?
Answer: The inflammatory cytokine levels was “significant suppression”.

Question: And the “phosphorylation of IKK, IκB, and p65 (NFκB activation)” value ([8]; inflammatory macrophage cells)?
Answer: Its value is “inhibit”.

Question: And the “IL-6, IL-1β, and TNF-α expression levels” value ([8]; macrophage cells, TNFα 50 ng/mL, 24 hrs)?
Answer: Its value is “significantly suppressed”.

Question: And the LD50 (SD Rat; SD Rat, AF known value)?
Answer: Its LD50 is “LD50, about 25 mg/kg.bw”.

Question: What about the “intraperitoneal LD50” value (SD Rat; rat, known value) of the same compound?
Answer: The value was “about 25.5 mg/kg”.

Question: What about the EC50 (SARS-CoV-2 [2]; MOI 0.015, 48 h.p.i., qRT-PCR) of the same compound?
Answer: The EC50 was about 830 nM.

Question: What about the LD50 (BALB/c mice; BALB/c Mice, AF known value) of the same compound?
Answer: Its LD50 is “LD50, about 33.8 mg/kg.bw”.

Question: And the “intraperitoneal LD50” value (BALB/c mice; mice, known value)?
Answer: The value was “about 33.8 mg/kg”.

Question: For `OC[C@H]1O[C@H]([S-])[C@H](O)[C@@H](O)[C@@H]1O.[Au+]` [aurothioglucose], which “inhibition / suppression of M^pro protease activity (in words)” value (SARS-CoV-2 M^pro) is on record?
Answer: Its value is “able to inhibit”.
